Source: patent US20080312184A1 (priority 2005, published 2008)

Assays:
[1] = system: alternaria leaf spot pathogen of apples; assay: Control Test on Alternaria Leaf Spot of Apples; format: in vivo, apples (cultivar: ourin); conditions: Table 5, single active ingredient, examined after 20 days
Source text: After a liquid chemical was dried, 10 trees attacked by alternaria leaf spot pathogen of apples which were previously arranged to be diseased were placed on the windward side and apples of test pots placed on the leeward side by wind of an air conditioner were wind-inoculated.

brown patch pathogen = assay: Control Test on Brown Patch of Turf Grass; format: in vivo, grass (cultivar: Pentocross); conditions: Table 6, single active ingredient, soaked into soil, kept for 20 days
Source text: Then, the area ratio of brown patch pathogen-attacked portion to the whole surface of the pot was examined according to the same index as in Test Example 1.

CC(C)CC(C)c1sccc1NC(=O)c1cn(C)nc1C(F)(F)F (racemic) [P (penthiopyrad), (RS)—N-[2-(1,3-dimethylbutyl)thiophen-3-yl]-1-methyl-3-tri fluoromethyl-1H-pyrazole-4-carboxamide]
Control Value ([1]; treated concentration 10 ppm): 50
Control Value (brown patch pathogen; treated concentration 10 ppm): 53

CCCCCCCCCCCCNC(=N)N [Dodine, dodine]
Control Value ([1]; treated concentration 50 ppm): 44

O=C1C(Cl)=C(Cl)C(=O)N1c1ccc(F)cc1 [Fluoroimide, fluoroimide]
Control Value ([1]; treated concentration 30 ppm): 45

Clc1ccc(CSC(Cn2cncn2)=Nc2ccc(Cl)cc2Cl)cc1 [Imibenconazole, imibenconazole]
Control Value ([1]; treated concentration 10 ppm): 42

CC1(C)COC(C)(CCCc2ccc(Cl)cc2)N1C(=O)n1ccnc1.CC1(C)COC(C)(CCCc2ccc(Cl)cc2)N1C(=O)n1ccnc1.O=C(O)/C=C/C(=O)O (centres unmarked) [Oxpoconazole fumarate, oxpoconazole fumarate]
Control Value ([1]; treated concentration 10 ppm): 46

CC1=C(C(=O)Nc2ccccc2)S(=O)(=O)CCO1 [Oxycarboxin, oxycarboxin]
Control Value (brown patch pathogen; treated concentration 20 ppm): 42

C[Si](C)(C)CC(O)(Cn1cncn1)c1ccc(F)cc1 (centres unmarked) [Simeconazole, simeconazole]
Control Value (brown patch pathogen; treated concentration 10 ppm): 48
